Measured values published in patent US20260042847A1, “CYSTEINE ENGINEERED ANTIBODY CONSTRUCTS, CONJUGATES AND METHODS OF USE” (ZYMEWORKS INC., priority 2021, published 2026).
Square brackets hold non-standard residues; d marks the D form. Peptide text beside a SMILES is read from it. * marks the point of attachment. Dolaproine = CO[C@@H]([C@@H]1CCCN1)[C@@H](C)C(=O)O; Dil = CC[C@H](C)[C@H](NC)[C@@H](CC(=O)O)OC; X1 = C[C@@H](N*)[C@@H](O)c1ccccc1; NMeV = CN[C@H](C(=O)O)C(C)C

Legend:
Format in all cases: cell-based
[1] = test system: EBC-1 cell line (high c-Met-expressing); assay: In vitro cytotoxicity (CellTiter-Glo), EBC-1; settings: 4 nights incubation; n = 2
Protocol: (§1) Cytotoxicity of the ADCs from Example 3 comprising either MCvcPABC-MMAE or MTvcCompound 1 was tested in vitro against a variety of tumor cell lines expressing the target surface antigen (c-Met) as described below. The following cell lines were used (Table 9.1).
(§2) Each of the cell lines shown in Table 9.1 was grown in the respective complete growth medium until assay day. After removal from the culture vessels using Trypsin-EDTA, cells were counted using a Scepter™ Cell Counter (Sigma-Aldrich Canada, Oakville, ON). Cells were diluted in complete growth medium to 20,000 cells/mL, such that 50 μL/well in 384-well plates equaled 1,000 cells/well, unless otherwise specified. All ADCs were diluted to 15 nM starting concentration in complete growth medium (RPMI 1640) followed by a 1:3 dilution in sterile 96-well dilution plates (final volume 200 μL/well). Samples (20 μL/well) were transferred into a 384-well plate in duplicate. Plates were then seeded with 20,000 cell/mL suspension of test cell line (50 μL/well), unless otherwise specified. […] After incubation, cell viability was quantified by adding 1×CellTiter-Glo® reagent (Promega Corporation, Madison, WI) at 10 μL/well. After incubating for 30 min in the dark, luminescence was measured using a Synergy™ H1 Hybrid Multi-Mode Reader (BioTek Instruments Inc., Winooski, VT). Data was analyzed with Prism 7 software (GraphPad Prism Software).

[2] = test system: HCC827 cell line (mid c-Met expressing); assay: In vitro cytotoxicity (CellTiter-Glo), HCC827; settings: 4 nights incubation; n = 2
Protocol: as §1, §2

[3] = test system: BT-20 cell line (low c-Met expressing); assay: In vitro cytotoxicity (CellTiter-Glo), BT-20; settings: 4 nights incubation; n = 2; IC = cytotoxicity shown but curve not optimal for accurate EC50
Protocol: as §1, §2

[4] = test system: H292 cell line (mid c-Met expressing); assay: In vitro cytotoxicity (CellTiter-Glo), H292; settings: 4 nights incubation; n = 2; IC = cytotoxicity shown but curve not optimal for accurate EC50
Protocol: as §1, §2

In the case of CC[C@H](C)[C@@H]([C@@H](CC(=O)N1CCC[C@H]1[C@H](OC)[C@@H](C)C(=O)N[C@H](C)[C@@H](O)c1ccccc1)OC)N(C)C(=O)[C@@H](NC(=O)[C@@H](NC)C(C)C)C(C)C [MMAE] (H-[NMeV]V[Dil][Dolaproine]-X1), the EC50 [1] is reported as 0.16 nM, the EC50 [2] is reported as 0.36 nM and the EC50 [3] is reported as 0.13 nM. For the same compound, the EC50 [4] was 0.11 nM.
